Source: patent US5545618A, “GLP-1 analogs useful for diabetes treatment” (priority 1993, dated 1996)
Like-named read-outs stand apart in the source and are kept apart here.

Assays:
[1] = degradation in plasma by RP-HPLC; assay type: in vitro ADME; conditions: incubation in plasma for 60 minutes; note: key: +: degradation was not observed; -: was complete after this time
Method: In this assay, the analog is added to plasma for various times and recovered similarly to the method described above for radiolabel sequencing analysis. Specifically, the analog at a concentration of 100 nM in RIA buffer is spiked into 1 mL plasma to a final concentration of 1 nM and after incubation in 37° C. circulating water bath for various preset times, the reaction is stopped by bringing the plasma to 0.1% (w/v) in bacitracin.
The peptides are then purified by Sep-Pak extraction as described above. The eluates are concentrated to about 1 mL on a Speed-vac, diluted with 1 mL distilled water, frozen at 80° C. and lyophilized overnight. The powder is resuspended in 0.5 mL Buffer C (0.1% TFA in water) per mL starting plasma and 0.25 mL are injected on a Hewlett-Packard 109OL liquid chromatograph using an Alltech C18 column (0.45×25 cm; 10 μm particle size) with a Brownlee 2 cm C18 guard column. The extraction is monitored at OD214 throughout the run and the solvent flow rate was 1 mL/minute. A gradient between Buffer C and Buffer D (0.1% TFA in acetonitrile) is set up over a 40 minute run time. The gradient starts at 35% D is held for the first 2 minutes after injection and then increased to 42% D over 24 minutes. The gradient is then increased to 60% D over the next two minutes, held at this level for 2 minutes and returned to 35% D over the next 2 minutes. The % D remains at 35% for the remaining 8 minutes of the run. Fractions are collected at 0.5 minute intervals for the first 30 minutes of each run and dried in a Speed-vac.

RIN 1046-38 cells = test system: RIN 1046-38 cells
Method: An additional test for potency of the compounds of the invention measures their ability to stimulate cAMP production in RIN 1046-38 cells. This assay can be conducted as follows:
On day 1, 5×10^5 RIN 1046-38 cells (Drucker, D. J., et al., Proc Natl Acad Sci USA (1987) 84:3434-3438) are seeded into individual wells of 6-well dishes with 2.5 mL M199 culture medium. On day 4, cells are re-fed with fresh medium and on day 5 the assay is performed. […] Assays are only performed on cell passage ≤24.
At time -60 min, monolayers are washed twice with 2.5 mL PBS, and medium is changed to 1.0 mL of DMEM medium plus 4.5 g/l glucose and 0.1% BSA (assay medium). At 0 time, medium is aspirated and fresh assay medium, 1.0 mL, containing test compound is added. Test compound is added in 50 ul volume of PBS plus 0.1% BSA; controls are added in vehicle alone. Incubation is continued for 0 to 60 min.
At termination, conditioned medium and monolayer are harvested to measure both extra- and intracellular cAMP content. For extracellular measurement, medium is removed and centrifuged to remove any cellular debris. For intracellular determination, after medium removal, 1.0 mL of ice cold 95% ethanol is added to monolayer. Cells are collected by scraping, lysed by two cycles of quick freeze/thawing using liquid N2, and cell debris then removed by centrifugation. Aliquots (1/40th well content) of conditioned medium and ethanol cell extract are measured in duplicate for cAMP levels using an RIA kit by the acetylated protocol.
Insulin secretion can also be measured by the method described by Holst, J. J., et al. FEBS Letters (1987) 211:169-174 (supra). Also useful as an assay for insulinotropic effect is the measurement of stimulation of adenylate cyclase in the RIN 1046-38 cell line. Drucker, D. J. et al., Proc Natl Acad Sci USA (1987) 84:3434-3438 (supra).

Compound	Resistance to Degradation [1]	ED50 nM Duplicate Assays (first value) (RIN 1046-38 cells) [nM]	ED50 nM Duplicate Assays (second value) (RIN 1046-38 cells) [nM]	also measured
CC[C@H](C)[C@H](NC(=O)[C@H](Cc1ccccc1)NC(=O)[C@H](CCC(=O)O)NC(=O)[C@H](CCCCN)NC(=O)[C@H](C)NC(=O)[C@H](C)NC(=O)[C@H](CCC(N)=O)NC(=O)CNC(=O)[C@H](CCC(=O)O)NC(=O)[C@H](CC(C)C)NC(=O)[C@H](Cc1ccc(O)cc1)NC(=O)[C@H](CO)NC(=O)[C@H](CO)NC(=O)[C@@H](NC(=O)[C@H](CC(=O)O)NC(=O)[C@H](CO)NC(=O)[C@@H](NC(=O)[C@H](Cc1ccccc1)NC(=O)[C@@H](NC(=O)CNC(=O)[C@H](CCC(=O)O)NC(=O)[C@H](C)NC(=O)[C@@H](N)CCCCN)[C@@H](C)O)[C@@H](C)O)C(C)C)C(=O)N[C@@H](C)C(=O)N[C@@H](Cc1c[nH]c2ccccc12)C(=O)N[C@@H](CC(C)C)C(=O)N[C@H](C(=O)N[C@@H](CCCCN)C(=O)NCC(=O)N[C@@H](CCCNC(=N)N)C(=O)NCC(=O)O)C(C)C [(K)^7 -GLP-1(7-37)]	-			
CC[C@H](C)[C@H](NC(=O)[C@H](Cc1ccccc1)NC(=O)[C@H](CCC(=O)O)NC(=O)[C@H](CCCCN)NC(=O)[C@H](C)NC(=O)[C@H](C)NC(=O)[C@H](CCC(N)=O)NC(=O)CNC(=O)[C@H](CCC(=O)O)NC(=O)[C@H](CC(C)C)NC(=O)[C@H](Cc1ccc(O)cc1)NC(=O)[C@H](CO)NC(=O)[C@H](CO)NC(=O)[C@@H](NC(=O)[C@H](CC(=O)O)NC(=O)[C@H](CO)NC(=O)[C@@H](NC(=O)[C@H](Cc1ccccc1)NC(=O)[C@@H](NC(=O)CNC(=O)[C@H](CCC(=O)O)NC(=O)[C@H](C)NC(=O)[C@H](Cc1c[nH]cn1)NC(C)=O)[C@@H](C)O)[C@@H](C)O)C(C)C)C(=O)N[C@@H](C)C(=O)N[C@@H](Cc1c[nH]c2ccccc12)C(=O)N[C@@H](CC(C)C)C(=O)N[C@H](C(=O)N[C@@H](CCCCN)C(=O)NCC(=O)N[C@@H](CCCNC(=N)N)C(=O)NCC(=O)O)C(C)C [(N-acetyl-H)^7 -GLP-1(7-37)]	+			
CC[C@H](C)[C@H](NC(=O)[C@H](Cc1ccccc1)NC(=O)[C@H](CCC(=O)O)NC(=O)[C@H](CCCCN)NC(=O)[C@H](C)NC(=O)[C@H](C)NC(=O)[C@H](CCC(N)=O)NC(=O)CNC(=O)[C@H](CCC(=O)O)NC(=O)[C@H](CC(C)C)NC(=O)[C@H](Cc1ccc(O)cc1)NC(=O)[C@H](CO)NC(=O)[C@H](CO)NC(=O)[C@@H](NC(=O)[C@H](CC(=O)O)NC(=O)[C@H](CO)NC(=O)[C@@H](NC(=O)[C@H](Cc1ccccc1)NC(=O)[C@@H](NC(=O)CNC(=O)[C@H](CCC(=O)O)NC(=O)[C@H](C)NC(=O)[C@H](CCCCN)NC(C)=O)[C@@H](C)O)[C@@H](C)O)C(C)C)C(=O)N[C@@H](C)C(=O)N[C@@H](Cc1c[nH]c2ccccc12)C(=O)N[C@@H](CC(C)C)C(=O)N[C@H](C(=O)N[C@@H](CCCCN)C(=O)NCC(=O)N[C@@H](CCCNC(=N)N)C(=O)NCC(=O)O)C(C)C [(N-acetyl-K)^7 GLP-1 (7-37)]	+			
CC[C@H](C)[C@H](NC(=O)[C@H](Cc1ccccc1)NC(=O)[C@H](CCC(=O)O)NC(=O)[C@H](CCCCN)NC(=O)[C@H](C)NC(=O)[C@H](C)NC(=O)[C@H](CCC(N)=O)NC(=O)CNC(=O)[C@H](CCC(=O)O)NC(=O)[C@H](CC(C)C)NC(=O)[C@H](Cc1ccc(O)cc1)NC(=O)[C@H](CO)NC(=O)[C@H](CO)NC(=O)[C@@H](NC(=O)[C@H](CC(=O)O)NC(=O)[C@H](CO)NC(=O)[C@@H](NC(=O)[C@H](Cc1ccccc1)NC(=O)[C@@H](NC(=O)CNC(=O)[C@H](CCC(=O)O)NC(=O)[C@H](C)NC(=O)[C@H](Cc1c[nH]cn1)NC(=O)[C@H](CCCNC(=N)N)NC(=O)[C@H](CCC(=O)O)NC(=O)[C@H](Cc1ccccc1)NC(=O)[C@H](CCC(=O)O)NC(=O)[C@H](CC(=O)O)NC(=O)[C@@H](N)Cc1c[nH]cn1)[C@@H](C)O)[C@@H](C)O)C(C)C)C(=O)N[C@@H](C)C(=O)N[C@@H](Cc1c[nH]c2ccccc12)C(=O)N[C@@H](CC(C)C)C(=O)N[C@H](C(=O)N[C@@H](CCCCN)C(=O)NCC(=O)N[C@@H](CCCNC(=N)N)C(=O)NCC(=O)O)C(C)C [GLP-1(1-37)]		> 1000	2900	
CC[C@H](C)[C@H](NC(=O)[C@H](Cc1ccccc1)NC(=O)[C@H](CCC(=O)O)NC(=O)[C@H](CCCCN)NC(=O)[C@H](C)NC(=O)[C@H](C)NC(=O)[C@H](CCC(N)=O)NC(=O)CNC(=O)[C@H](CCC(=O)O)NC(=O)[C@H](CC(C)C)NC(=O)[C@H](Cc1ccc(O)cc1)NC(=O)[C@H](CO)NC(=O)[C@H](CO)NC(=O)[C@@H](NC(=O)[C@H](CC(=O)O)NC(=O)[C@H](CO)NC(=O)[C@@H](NC(=O)[C@H](Cc1ccccc1)NC(=O)[C@@H](NC(=O)CNC(=O)[C@H](CCC(=O)O)NC(=O)[C@H](C)NC(=O)[C@H](Cc1c[nH]cn1)NC(=O)[C@H](CCCNC(=N)N)NC(=O)[C@H](CCC(=O)O)NC(=O)[C@H](Cc1ccccc1)NC(=O)[C@@H](N)CCC(=O)O)[C@@H](C)O)[C@@H](C)O)C(C)C)C(=O)N[C@@H](C)C(=O)N[C@@H](Cc1c[nH]c2ccccc12)C(=O)N[C@@H](CC(C)C)C(=O)N[C@H](C(=O)N[C@@H](CCCCN)C(=O)NCC(=O)N[C@@H](CCCNC(=N)N)C(=O)NCC(=O)O)C(C)C [GLP-1(3-37)]		70	81	
CC[C@H](C)[C@H](NC(=O)[C@H](Cc1ccccc1)NC(=O)[C@H](CCC(=O)O)NC(=O)[C@H](CCCCN)NC(=O)[C@H](C)NC(=O)[C@H](C)NC(=O)[C@H](CCC(N)=O)NC(=O)CNC(=O)[C@H](CCC(=O)O)NC(=O)[C@H](CC(C)C)NC(=O)[C@H](Cc1ccc(O)cc1)NC(=O)[C@H](CO)NC(=O)[C@H](CO)NC(=O)[C@@H](NC(=O)[C@H](CC(=O)O)NC(=O)[C@H](CO)NC(=O)[C@@H](NC(=O)[C@H](Cc1ccccc1)NC(=O)[C@@H](NC(=O)CNC(=O)[C@H](CCC(=O)O)NC(=O)[C@H](C)NC(=O)[C@H](Cc1c[nH]cn1)NC(=O)[C@H](CCCNC(=N)N)NC(=O)[C@H](CCC(=O)O)NC(=O)[C@@H](N)Cc1ccccc1)[C@@H](C)O)[C@@H](C)O)C(C)C)C(=O)N[C@@H](C)C(=O)N[C@@H](Cc1c[nH]c2ccccc12)C(=O)N[C@@H](CC(C)C)C(=O)N[C@H](C(=O)N[C@@H](CCCCN)C(=O)NCC(=O)N[C@@H](CCCNC(=N)N)C(=O)NCC(=O)O)C(C)C [GLP-1(4-37)]		130	200	
CC[C@H](C)[C@H](NC(=O)[C@H](Cc1ccccc1)NC(=O)[C@H](CCC(=O)O)NC(=O)[C@H](CCCCN)NC(=O)[C@H](C)NC(=O)[C@H](C)NC(=O)[C@H](CCC(N)=O)NC(=O)CNC(=O)[C@H](CCC(=O)O)NC(=O)[C@H](CC(C)C)NC(=O)[C@H](Cc1ccc(O)cc1)NC(=O)[C@H](CO)NC(=O)[C@H](CO)NC(=O)[C@@H](NC(=O)[C@H](CC(=O)O)NC(=O)[C@H](CO)NC(=O)[C@@H](NC(=O)[C@H](Cc1ccccc1)NC(=O)[C@@H](NC(=O)CNC(=O)[C@H](CCC(=O)O)NC(=O)[C@H](C)NC(=O)[C@H](Cc1c[nH]cn1)NC(=O)[C@H](CCCNC(=N)N)NC(=O)[C@@H](N)CCC(=O)O)[C@@H](C)O)[C@@H](C)O)C(C)C)C(=O)N[C@@H](C)C(=O)N[C@@H](Cc1c[nH]c2ccccc12)C(=O)N[C@@H](CC(C)C)C(=O)N[C@H](C(=O)N[C@@H](CCCCN)C(=O)NCC(=O)N[C@@H](CCCNC(=N)N)C(=O)NCC(=O)O)C(C)C [GLP-1(5-37)]		150		
gastric inhibitory peptide [GIP]				ED50 nM Duplicate Assays (first value) (RIN 1046-38 cells; cAMP stimulation in RIN 1046-38 cells, first of duplicate assays): 10.0 nM; ED50 nM Duplicate Assays (second value) (RIN 1046-38 cells; cAMP stimulation in RIN 1046-38 cells, second of duplicate assays): 37.5 nM
